Data on 11 compounds can be found in patent US20150065466A1, “NOVEL DXR INHIBITORS FOR ANTIMICROBIAL THERAPY” (priority 2012, published 2015).

One data set deals with TgDXR (Toxoplasma gondii, UniProt S8ESX0). Format: biochemical, T. gondii.
The target of data set [1] is T1, EcDXR (Escherichia coli, UniProt P45568). The following applies: cited from earlier work.
Data set [2] has as its target T2, PfDXR (Plasmodium falciparum, UniProt Q8IKG4).
T2 sequence (Q8IKG4 75-488): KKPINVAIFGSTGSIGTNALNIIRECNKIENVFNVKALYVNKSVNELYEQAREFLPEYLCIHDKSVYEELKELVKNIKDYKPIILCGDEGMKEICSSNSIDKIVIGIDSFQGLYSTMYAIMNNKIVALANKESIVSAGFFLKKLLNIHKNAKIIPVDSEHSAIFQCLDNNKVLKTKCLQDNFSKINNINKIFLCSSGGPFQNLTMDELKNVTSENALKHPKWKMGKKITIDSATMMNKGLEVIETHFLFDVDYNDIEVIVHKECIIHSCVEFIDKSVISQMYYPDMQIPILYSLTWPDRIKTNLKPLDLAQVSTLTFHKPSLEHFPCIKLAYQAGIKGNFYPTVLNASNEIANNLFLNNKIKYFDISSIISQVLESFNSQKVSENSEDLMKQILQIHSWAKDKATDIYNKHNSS
The following applies: Table 2, data from literature (footnote a); cited from earlier work.

A further data set relates to T. gondii. The settings on record: study from the Moreno group; cited from earlier work.
The test system of the next data set is P. aeruginosa isolates. The following applies: Neu and Kamimura, 1981; cited from earlier work.
For data set [3] the following is noted: cited from earlier work; for half life in plasma: human plasma, patients; for oral availability: human, in vivo.
Data set [4] concerns T. gondii engineered to express the bacterial GlpT. The following applies: Nair et al., 2011; cited from earlier work.
In a further data set the test system is P. falciparum 3D7 strain. Kind of data set: P. falciparum proliferation, DAPI fluorescence assay, 3D7 strain. Format: cell-based. The following applies: read-out: IC50 against P. falciparum proliferation, 3D7 strain.
For a further data set, the system named is P. falciparum Dd2 strain. Kind of data set: P. falciparum proliferation, DAPI fluorescence assay, Dd2 strain. Format: cell-based. The following applies: read-out: IC50 against P. falciparum proliferation, Dd2 strain.
The subject of a further data set is A549. The experiment in a line: cytotoxicity, MTS assay, A549. Format: cell-based, human. The following applies: at 300 μM, 48 h. (In general: Tetrazolium dyes change colour on reduction, which living cells bring about.)
The subject of a further data set is Hela. Kind of data set: cytotoxicity, MTS assay, Hela. Format: cell-based, human. The following applies: at 300 μM, 48 h.
In data set [5] the target is T2, PfDXR. The experiment in a line: recombinant PfDXR enzyme inhibition. Format: biochemical, P. falciparum.
The next data set deals with WI-38 (fibroblast). The experiment in a line: cytotoxicity, MTS assay, WI-38. Format: cell-based, human. The following applies: at 300 μM, 48 h. As for the experimental part:
PfDXR inhibitors SYC-466, -467, -408, -409 were tested against three non-cancerous human cell lines, i.e., WI-38 (fibroblast), HEK293 (kidney) and Beas2B (lung epithelial), to evaluate the potential toxicity of these compounds, using an assay routinely perform (41). 1×10^5 cells are inoculated into each well of a 96-well plate and cultured in Dulbecco's Modified Eagle's Medium (DMEM) supplemented with 10% fetal bovine serum at 37° C. in a 5% CO2 atmosphere with 100% humidity overnight for cell attachment. After addition of compounds (from 0.1-300 μM), plates are incubated for 48 h after which cell viability are assessed by the [3-(4,5-dimethylthiazol-2-yl)-5-(3-carboxymethoxyphenyl)-2-(4-sulfophenyl)-2H-tetrazolium, inner salt (MTS) assay, using a commercially available kit (Promega). IC50s of each compound can be calculated from dose response curves.

For data set [6], the target named is T1, EcDXR. The experiment in a line: recombinant EcDXR enzyme inhibition. Format: biochemical, E. coli.
Where [7] appears, read: 100 nM TgDXR, 4 mM MgCl2, 100 μM DXP, pH 7.6, read-out: Ki TgDXR.
The mark [8] stands for this setting: Plasmodium falciparum, 3D7, Erythrocyte, 72 h.
Setting [9] is: Plasmodium falciparum, DD2, Erythrocyte, 72 h.
Setting [10] is: 3D7 (chloroquine sensitive), erythrocyte stage, 3 days.
[11] abbreviates: read-out: Ki against recombinant EcDXR.
Setting [12] is: Dd2 (multidrug resistant), erythrocyte stage, 3 days.
Setting [13] is: Table 1, read-out: Enzyme Ki PfDXR.

Like-named read-outs stand apart in the source and are kept apart here.

T1 sequence (P45568 whole entry): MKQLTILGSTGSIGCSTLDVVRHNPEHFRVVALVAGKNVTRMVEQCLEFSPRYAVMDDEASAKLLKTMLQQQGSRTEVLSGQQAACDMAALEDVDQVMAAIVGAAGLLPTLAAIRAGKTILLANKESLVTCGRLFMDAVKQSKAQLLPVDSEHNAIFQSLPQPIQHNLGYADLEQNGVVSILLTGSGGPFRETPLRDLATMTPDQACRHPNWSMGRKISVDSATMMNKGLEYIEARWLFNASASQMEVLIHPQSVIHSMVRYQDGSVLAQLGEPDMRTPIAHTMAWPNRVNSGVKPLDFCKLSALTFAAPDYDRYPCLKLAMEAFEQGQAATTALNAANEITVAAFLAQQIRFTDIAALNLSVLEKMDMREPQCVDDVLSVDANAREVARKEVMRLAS
TgDXR, sequence (S8ESX0 entry or part of it): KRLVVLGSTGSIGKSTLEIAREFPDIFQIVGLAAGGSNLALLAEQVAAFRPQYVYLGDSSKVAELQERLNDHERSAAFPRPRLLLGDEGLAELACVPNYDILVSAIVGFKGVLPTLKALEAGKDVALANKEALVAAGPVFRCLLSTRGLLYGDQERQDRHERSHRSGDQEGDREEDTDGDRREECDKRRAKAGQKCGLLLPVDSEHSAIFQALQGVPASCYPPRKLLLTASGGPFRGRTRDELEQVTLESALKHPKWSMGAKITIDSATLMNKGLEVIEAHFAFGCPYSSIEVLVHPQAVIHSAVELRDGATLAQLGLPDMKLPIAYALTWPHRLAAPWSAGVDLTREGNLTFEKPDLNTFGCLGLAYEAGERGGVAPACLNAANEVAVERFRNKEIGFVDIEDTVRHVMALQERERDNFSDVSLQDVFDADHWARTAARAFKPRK

For orientation: Ki means the equilibrium dissociation constant of an inhibitor or competing ligand from its target. `O=P(O)(O)Cc1ccccn1` [Compound 3]: the “Ki against TgDXR, in words” value at TgDXR is “low μM range”. The Ki on TgDXR (setting [7]) is 4100 nM; at EcDXR [1], 2300 nM; on PfDXR [2], 3300 nM.

In the case of `O=CN(O)CCC(c1ccc(Cl)c(Cl)c1)P(=O)(O)O` (stereo not drawn) [Compound 10], the Ki is 77 nM on TgDXR (setting [7]), 77 nM on TgDXR (read-out: Ki against TgDXR), 58 nM at EcDXR [1] and 15 nM at PfDXR [2].

Regarding `CC(=O)N(O)CCC(c1ccc(Cl)c(Cl)c1)P(=O)(O)O` (stereo not drawn) [Compound 11], the Ki at TgDXR (setting [7]) is 220 nM; on EcDXR [1] it was 36 nM; on PfDXR [2], 25 nM.

On to `CC(=O)N(O)CCCP(=O)(O)O` [FR900098], for which the Ki is 48 nM at TgDXR (setting [7]); 48 nM on TgDXR (read-out: Ki against TgDXR); 19 nM at EcDXR [1] (Table 2, data from literature (footnote a)); 11 nM at PfDXR [2].

As for `O=CN(O)CCCP(=O)(O)O` [Fosmidomycin], the Ki at TgDXR (read-out: Ki against TgDXR) was 90 nM. Besides, the “activity on T. gondii parasite” value in the data set with T. gondii is “no activity”. In the data set with P. aeruginosa isolates, the “MIC50 (inhibits 50% of P. aeruginosa isolates)” value is 6.25 µg/mL. In addition, the results for the “half life in plasma” value in data set [3] and in data set [3] (listed as 1) were 30 to 90 min and approximately 60 min, respectively. The oral availability entry in data set [3] is listed as “low”; in [3] (listed as 1) it was “poor”. Besides, the “killing of T. gondii expressing GlpT” value in data set [4] is on record as “can effectively kill”. In addition, the IC50 in the data set on P. falciparum 3D7 strain (setting [8]) amounted to 1170 nM; in the data set with P. falciparum Dd2 strain (setting [9]) it was 440 nM.

On to `CC(=O)N(O)CCC(c1cccnc1)P(=O)(O)O` (stereo not drawn) [SYC-408], for which the Ki on TgDXR (setting [7]) was 970 nM; on PfDXR [5] (listed as 5a, read-out: Ki against PfDXR), 1.9 nM; at EcDXR [1] it was 42 nM; on EcDXR [6] (setting [11]), 42 nM. In the data set with A549, the “cytotoxicity against growth of A549 cells” value (shortened to “cytotoxicity … of A549 cells”) is “essentially no cytotoxicity”. Further, the “cytotoxicity against growth of Hela cells” value (from here on “cytotoxicity … of Hela cells”) with Hela was “essentially no cytotoxicity”. In addition, the “fold more active than fosmidomycin against PfDXR” value at PfDXR [5] (ratio of Ki values) is approximately 10 fold. Moreover, in the data set with WI-38 (fibroblast), the “cytotoxicity against growth of WI-38 cells” value (“cytotoxicity … of WI-38 cells” for short) is recorded as “essentially no cytotoxicity”. The figures for the IC50 in the data set on P. falciparum 3D7 strain (setting [10]) and in the data set on P. falciparum Dd2 strain (setting [12]) were 440 nM and 310 nM, respectively.

Turning to `CC(=O)N(O)CCC(c1ccncc1)P(=O)(O)O` (stereo not drawn) [SYC-409], the Ki is 530 nM at TgDXR (setting [7]), 13 nM at PfDXR [5] (setting [13]), 82 nM at EcDXR [1] and 82 nM at EcDXR [6] (setting [11]). The “cytotoxicity … of A549 cells” value in the data set on A549 is on record as “essentially no cytotoxicity”. Also, in the data set on Hela, the “cytotoxicity … of Hela cells” value was “essentially no cytotoxicity”. Moreover, the “cytotoxicity … of WI-38 cells” value in the data set on WI-38 (fibroblast) is reported as “essentially no cytotoxicity”. The IC50 is 630 nM with P. falciparum 3D7 strain (setting [10]) and 460 nM in the data set with P. falciparum Dd2 strain (setting [12]).

As for `O=CN(O)CCC(c1cccnc1)P(=O)(O)O` (stereo not drawn) [SYC-466], the Ki at TgDXR (read-out: Ki against TgDXR) is 55 nM; on PfDXR [5], 13 nM; on EcDXR [6] (Table 1, read-out: Enzyme Ki EcDXR), 87 nM; on PfDXR [2] it was 13 nM. In the data set on A549, the “cytotoxicity … of A549 cells” value is reported as “essentially no cytotoxicity”. Further, the “cytotoxicity … of Hela cells” value with Hela is reported as “essentially no cytotoxicity”. Also, the “cytotoxicity … of WI-38 cells” value with WI-38 (fibroblast) is “essentially no cytotoxicity”. The IC50 with P. falciparum 3D7 strain (setting [8]) was 340 nM; in the data set with P. falciparum Dd2 strain (setting [9]) it was 180 nM.

For the compound `O=CN(O)CCC(c1ccncc1)P(=O)(O)O` (stereo not drawn) [SYC-467], the Ki is 79 nM on TgDXR (setting [7]); 79 nM on TgDXR (read-out: Ki against TgDXR); 8.9 nM at PfDXR [5] (setting [13]); 35 nM at EcDXR [1]; 35 nM on EcDXR [6] (setting [11]). Besides, the “cytotoxicity … of A549 cells” value with A549 is on record as “essentially no cytotoxicity”. The “cytotoxicity … of Hela cells” value in the data set on Hela was “essentially no cytotoxicity”. Besides, the “cytotoxicity … of WI-38 cells” value in the data set with WI-38 (fibroblast) is given as “essentially no cytotoxicity”. Further, the figures for the IC50 with P. falciparum 3D7 strain (setting [10]) and with P. falciparum Dd2 strain (setting [12]) were 180 nM and 170 nM, respectively.

`CCN(CC)CCCC(C)Nc1ccnc2cc(Cl)ccc12` (stereo not drawn) [chloroquinone, reference compound]: the IC50 with P. falciparum 3D7 strain (Plasmodium falciparum, 72 h, 3D7 (chloroquine sensitive), erythrocyte stage, 3 days) was 28 nM; in the data set with P. falciparum Dd2 strain (Plasmodium falciparum, 72 h, Dd2 (multidrug resistant), erythrocyte stage, 3 days), 111 nM.

As for gentamicin, the “MIC50 (inhibits 50% of P. aeruginosa isolates)” value with P. aeruginosa isolates was 12.5 µg/mL.
